The text below walks through data of US11673876B2, “Substituted aminobenzyl heteroaryl compounds as EGFR and/or PI3K inhibitors” (Mekanistic Therapeutics LLC, priority 2020, dated 2023).

Each structure is given as a SMILES string. In brackets after ≈: the same amount, converted by molar mass.

A short description of data set [1]: Solubility determination (PBS 7.4, SIF, SGF). The data set is classed as physicochemical. Conditions: simulated intestinal fluid (SIF), kinetic from dmso stock; simulated intestinal fluid pH 6.8, 25° C., 2 hours; read-out: Solubility SIF. How it is done: Preparation of stock solutions: The stock solutions of test compounds and control compound diclofenac were prepared in DMSO at the concentrations of 10 mM.
Simulated Gastric Fluid (SGF): An aqueous mixture including hydrochloric acid, sodium chloride, and pepsin (pH=1.2).
Simulated Intestinal Fluid (SIF): Prepared by dissolving 6.8 g of KH2PO4 into about 500 mL ultrapure water and adjust the solution to a pH 6.8 with 0.1 M NaOH. 10 g trypsin is then dissolved into ultrapure water. The two solutions are mixed well and diluted with ultrapure water to a final volume of 1000 mL.
485 μL of (SIF, SGF, PBS 7.4, FESSIF, or FESSGF) was added into each vial of the cap-less Solubility Sample plate. The assay was performed in duplicate. Add one stir stick to each vial and seal using a molded PTFE/Silicone plug. […] After completion of the 2 hours, plugs were removed and the stir sticks were removed using a big magnet, the samples from the Solubility Sample plate were transferred into the filter plate. Using the Vacuum Manifold, all the samples were filtered. Aliquot of 5 μL and 5 μL DMSO were taken from the filtrate followed by addition of 490 μL of a mixture of H2O and acetonitrile containing internal standard (1:1). A certain proportion of ultrapure water was used to dilute the diluent according to the peak shape. The dilution factor was changed according to the solubility values and the LC-MS signal response.
Preparation of 300 μM standards (STD): From the 10 mM DMSO STD plate, 6 μL was transferred into the remaining empty plate, and then 194 μL of DMSO was added to that plate to have a STD concentration of 300 μM. From the 300 μM DMSO STD plate, 5 μL DMSO STD and 5 μL SIF was transferred into the remaining empty plate, and then 490 μL of a mixture of H2O and acetonitrile containing internal standard (1:1) was added to that plate to have a final STD concentration of 3 μM. A certain proportion of ultrapure water was used to dilute the diluent according to the peak shape. The concentrations of the standard samples were changed according to the LC-MS signal response.
Procedure for sample analysis: The plate was placed into the well plate autosampler. The samples were evaluated by LC-MS/MS analysis.
Data analysis: All calculations were carried out using Microsoft Excel. The filtrate was analyzed and quantified against a standard of known concentration using LC coupled with mass spectral peak identification and quantitation. Solubility values of the test compound and control compound were calculated as follows: […]
Any value of the compounds that was not within the specified limits was rejected and the experiment was repeated.

In data set [2] the target is EGFR (Homo sapiens (Human), UniProt P00533). As to the kind of experiment: Z'-LYTE / Adapta kinase assay, EGFR. The data set is classed as biochemical. Particulars: for inhibition at 0.1 µM: read-out: EGFR % Inh. @ 100 nM. Summed up:
(§1)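 Z'-LYTE FRET-peptide phosphorylation read as coumarin/fluorescein emission ratio (400 nm excitation); Adapta immunoassay detects ADP formation. 60-min kinase reaction, 60-min development, room temperature.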

For data set [3], the target named is PI3Ka (Homo sapiens (Human), UniProt P42336). Kind of data set: Z'-LYTE / Adapta kinase assay, PI3Ka. It is filed as biochemical. Particulars: for inhibition at 0.1 µM: read-out: PI3Ka % Inh. @ 100 nM. A digest of the protocol: as §1
Chain of PI3Ka (P42336 whole entry): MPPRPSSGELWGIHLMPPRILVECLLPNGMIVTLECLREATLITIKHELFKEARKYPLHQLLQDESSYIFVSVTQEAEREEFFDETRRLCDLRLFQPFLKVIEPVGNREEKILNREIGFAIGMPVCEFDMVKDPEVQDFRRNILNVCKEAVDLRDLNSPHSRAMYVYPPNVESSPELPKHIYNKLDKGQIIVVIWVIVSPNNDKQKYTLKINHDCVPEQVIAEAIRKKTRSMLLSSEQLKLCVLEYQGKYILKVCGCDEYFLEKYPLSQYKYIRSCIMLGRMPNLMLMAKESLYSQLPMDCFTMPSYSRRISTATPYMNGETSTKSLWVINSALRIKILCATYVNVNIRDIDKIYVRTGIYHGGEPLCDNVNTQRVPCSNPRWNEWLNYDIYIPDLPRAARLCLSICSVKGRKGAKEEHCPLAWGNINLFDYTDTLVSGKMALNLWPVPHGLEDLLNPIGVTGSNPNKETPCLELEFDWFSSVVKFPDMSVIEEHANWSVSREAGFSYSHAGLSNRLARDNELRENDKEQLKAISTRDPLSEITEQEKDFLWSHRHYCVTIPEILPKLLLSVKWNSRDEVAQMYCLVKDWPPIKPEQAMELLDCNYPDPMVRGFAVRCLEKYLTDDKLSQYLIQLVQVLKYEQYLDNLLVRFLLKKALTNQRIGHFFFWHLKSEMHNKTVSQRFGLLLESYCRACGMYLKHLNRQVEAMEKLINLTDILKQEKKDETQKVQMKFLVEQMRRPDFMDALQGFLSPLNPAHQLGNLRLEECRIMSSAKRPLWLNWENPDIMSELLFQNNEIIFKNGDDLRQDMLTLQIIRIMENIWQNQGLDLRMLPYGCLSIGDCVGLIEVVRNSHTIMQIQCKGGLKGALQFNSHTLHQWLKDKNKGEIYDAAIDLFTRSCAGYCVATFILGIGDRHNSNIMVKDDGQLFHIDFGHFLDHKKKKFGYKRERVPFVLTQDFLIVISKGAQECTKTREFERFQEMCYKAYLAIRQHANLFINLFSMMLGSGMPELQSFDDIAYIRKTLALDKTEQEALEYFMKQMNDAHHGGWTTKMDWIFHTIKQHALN
Chain of PI3Ka (P27986 whole entry partner): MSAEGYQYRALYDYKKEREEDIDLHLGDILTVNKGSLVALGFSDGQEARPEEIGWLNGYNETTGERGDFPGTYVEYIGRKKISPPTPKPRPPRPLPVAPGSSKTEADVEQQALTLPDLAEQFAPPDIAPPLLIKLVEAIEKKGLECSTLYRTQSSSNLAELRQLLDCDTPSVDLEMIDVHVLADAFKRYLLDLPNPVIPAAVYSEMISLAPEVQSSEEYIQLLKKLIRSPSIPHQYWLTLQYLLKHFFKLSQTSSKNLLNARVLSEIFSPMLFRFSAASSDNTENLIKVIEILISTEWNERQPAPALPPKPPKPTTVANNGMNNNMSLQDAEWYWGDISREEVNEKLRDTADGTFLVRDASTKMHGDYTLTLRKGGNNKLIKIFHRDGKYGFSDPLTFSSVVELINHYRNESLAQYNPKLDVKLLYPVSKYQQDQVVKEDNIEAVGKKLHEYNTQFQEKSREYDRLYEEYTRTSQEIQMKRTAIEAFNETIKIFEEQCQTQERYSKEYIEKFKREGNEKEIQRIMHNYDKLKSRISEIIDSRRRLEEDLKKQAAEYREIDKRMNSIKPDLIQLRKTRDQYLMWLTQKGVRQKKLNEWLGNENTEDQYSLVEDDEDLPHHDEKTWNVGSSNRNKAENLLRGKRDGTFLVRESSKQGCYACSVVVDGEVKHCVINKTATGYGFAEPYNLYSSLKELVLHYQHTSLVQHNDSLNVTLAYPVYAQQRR
Data set [4] deals with DNA-PK (Homo sapiens (Human), UniProt P78527). As to the kind of experiment: Z'-LYTE / Adapta kinase assay, DNA-PK. The data set is classed as biochemical. Conditions: for inhibition at 0.1 µM: read-out: DNA-PK % Inh. @ 100 nM. A digest of the protocol: as §1
The nature of data set [5]: Metabolic stability in mouse liver microsomes. The data set is classed as in vitro ADME. The protocol: (§2) Working solution: 5 μL of compound and control stock solution (10 mM in dimethyl sulfoxide (DMSO)) were diluted with 495 μL of acetonitrile (ACN) (intermediate solution concentration: 100 μM, 99% ACN)
(§3) NADPH Cofactor Preparation: NADPH powder: β-Nicotinamide adenine dinucleotide phosphate reduced form, tetrasodium salt; NADPH·4Na. The appropriate amount of NADPH powder was weighed and diluted into a 10 mM MgCl2 solution (working solution concentration: 10 unit/mL; final concentration in reaction system: 1 unit/mL)
(§4) Liver Microsomes Preparation: The appropriate concentrations of microsome working solutions were prepared in 100 mM potassium phosphate buffer. Cold (4° C.) acetonitrile (ACN) containing 200 ng/mL tolbutamide and 200 ng/mL labetalol as internal standards (1S) was used as the stop solution
(§5) Assay Procedure: Pre-warm empty ‘Incubation’ plates T60 and NCF60 for 10 minutes. Dilute liver microsomes to 0.56 mg/mL in 100 mM phosphate buffer. Transfer 445 μL microsome working solutions (0.56 mg/mL) into pre-warmed ‘Incubation’ plates T60 and NCF60, Then pre-incubate ‘Incubation’ plates T60 and NCF60 for 10 min at 37° C. with constant shaking. Transfer 54 μL liver microsomes to blank plate, then add 6 μL NAPDH cofactor to blank plate, and then add 180 μL quenching solution to blank plate. Add 5 μL compound working solution (100 μM) into ‘incubation’ plates (T60 and NCF60) containing microsomes and mix 3 times thoroughly.
(§6) For the NCF60 plate, add 50 μL of buffer and mix 3 times thoroughly. Start timing; plate will be incubated at 37° C. for 60 min while shaking. In ‘Quenching’ plate T0, add 180 μL quenching solution and 6 μL NAPDH cofactor. Ensure the plate is chilled to prevent evaporation. For the T60 plate, mix 3 times thoroughly, and immediately remove 54 μL mixture for the 0-min time point to ‘Quenching’ plate. Then add 44 μL NAPDH cofactor to incubation plate (T60). Start timing; plate will be incubated at 37° C. for 60 min while shaking. At 5, 10, 20, 30, and 60 min, add 180 μL quenching solution to ‘Quenching’ plates, mix once, and serially transfer 60 μL sample from T60 plate per time point to ‘Quenching’ plates. For NCF60: mix once, and transfer 60 μL sample from the NCF60 incubation to ‘Quenching’ plate containing quenching solution at the 60-min time point. All sampling plates are shaken for 10 min, then centrifuged at 4000 rpm for 20 minutes at 4° C. Transfer 80 μL supernatant into 240 μL HPLC water, and mix by plate shaker for 10 min. Each bioanalysis plate was sealed and shaken for 10 minutes prior to LC-MS/MS analysis.
(§7) The equation of first order kinetics was used to calculate T½ and CLint(mic) (μL/min/mg). Equation of first order kinetics: […]
(§8) The biological stability of the compounds of the disclosure can be measured by determining its ½ life in the presence microsomes. Presented in Table 5, is the ½ life of selected compounds of the disclosure in the presence of human liver microsomes (HLM) or mouse liver microsomes (MLM) as described above. In Table 5, ½ life is presented as “++++” (value is greater than 60 minutes), “+++” (value is greater than 30 minutes and less than or equal to 60 minutes), “++” (value is greater than 15 minutes and less than or equal to 30 minutes) and “+” (value is 15 minutes or less).
On the technique in general: Microsomes from liver hold many membrane-bound enzymes, among them those of drug oxidation.

Data set [6] is described as follows: Metabolic stability in human liver microsomes. The data set is classed as in vitro ADME. The protocol: as §2, §3, §4, §5, §6, §7, §8

Chain of EGFR (P00533 25-1210): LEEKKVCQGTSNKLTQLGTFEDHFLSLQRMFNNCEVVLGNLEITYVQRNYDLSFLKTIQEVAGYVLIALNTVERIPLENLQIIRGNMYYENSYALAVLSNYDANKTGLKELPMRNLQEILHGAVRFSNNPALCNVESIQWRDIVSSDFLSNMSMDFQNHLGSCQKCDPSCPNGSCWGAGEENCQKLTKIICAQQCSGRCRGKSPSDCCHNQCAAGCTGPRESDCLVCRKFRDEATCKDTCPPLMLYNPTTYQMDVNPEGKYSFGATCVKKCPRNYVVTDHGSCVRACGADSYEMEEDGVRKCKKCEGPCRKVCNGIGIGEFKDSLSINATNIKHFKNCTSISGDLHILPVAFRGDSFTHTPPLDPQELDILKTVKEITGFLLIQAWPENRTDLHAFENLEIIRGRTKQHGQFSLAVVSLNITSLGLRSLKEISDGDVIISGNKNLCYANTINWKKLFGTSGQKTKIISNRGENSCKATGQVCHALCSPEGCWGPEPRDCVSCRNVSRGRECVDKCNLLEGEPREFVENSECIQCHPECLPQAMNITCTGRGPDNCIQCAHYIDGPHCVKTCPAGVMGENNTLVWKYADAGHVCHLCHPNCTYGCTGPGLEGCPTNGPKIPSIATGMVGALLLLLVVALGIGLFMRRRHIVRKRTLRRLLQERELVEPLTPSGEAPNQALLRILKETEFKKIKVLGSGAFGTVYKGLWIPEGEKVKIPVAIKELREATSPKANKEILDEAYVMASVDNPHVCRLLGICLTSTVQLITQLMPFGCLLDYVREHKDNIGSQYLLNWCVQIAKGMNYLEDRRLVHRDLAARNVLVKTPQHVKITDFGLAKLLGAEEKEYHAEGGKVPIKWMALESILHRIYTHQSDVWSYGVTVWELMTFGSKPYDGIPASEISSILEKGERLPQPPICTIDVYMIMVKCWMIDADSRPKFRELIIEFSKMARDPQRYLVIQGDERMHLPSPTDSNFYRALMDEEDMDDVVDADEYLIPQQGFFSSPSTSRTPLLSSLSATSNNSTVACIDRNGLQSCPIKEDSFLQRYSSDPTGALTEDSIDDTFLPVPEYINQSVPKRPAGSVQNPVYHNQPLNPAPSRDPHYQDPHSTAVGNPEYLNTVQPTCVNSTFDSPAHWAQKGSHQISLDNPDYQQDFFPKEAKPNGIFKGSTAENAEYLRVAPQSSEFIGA

On to `CC(Nc1ncnc2ccc(-c3cnc(N)nc3)cc12)c1ccccc1` (centres unmarked) [Compound 7, 6-(2-aminopyrimidin-5-yl)-N-(1-phenylethyl)quinazolin-4-amine], for which the solubility – broadly, the dissolved amount per volume that the medium holds – at 2 h in data set [1] is 20 to 100 µM (≈ 6.85 to 34.2 µg/mL). Further, the results for the inhibition at 0.1 µM in data set [2], in data set [3] and in data set [4] were 80 to 90%, 10 to 80% and 10 to 80%, respectively.

Turning to `COc1cc(-c2ccc3ncnc(NC(C)c4ccccc4)c3c2)cnc1OC` (centres unmarked) [Compound 22, 6-(5,6-dimethoxy-3-pyridyl)-N-(1-phenylethyl) quinazolin-4-amine], in data set [1], the solubility at 2 h was 20 to 100 µM (≈ 7.73 to 38.6 µg/mL). Moreover, the concentration for half-maximal inhibition (IC50) (in general, the concentration at which inhibition is half-maximal) in data set [3] was 20 to 200 nM; in data set [4] it was greater than 200 nM. Further, the inhibition at 0.1 µM in data set [3] and in data set [4] was 10 to 80% throughout.

Regarding `CC(Nc1c(C#N)cnc2ccc(-c3cnc(Cl)c(NS(C)(=O)=O)c3)cc12)c1ccccc1` (centres unmarked) [Compound 48, N-[2-chloro-5-[3-cyano-4-(1-phenylethylamino)-6-quinolyl]-3-pyridyl]methanesulfonamide], the “½ life minutes (MLM)” value in data set [5] is on record as “++++ (value is greater than 60 minutes)”. For the same compound, the inhibition at 0.1 µM in data set [2] is 80 to 90%; in data set [3] it was greater than 90%; in data set [4], greater than 90%. For the same compound, the “½ life minutes (HLM)” value in data set [6] is “++++ (value is greater than 60 minutes)”.

`C[C@@H](Nc1c(C#N)cnc2ccc(-c3cnc(Cl)c(NS(C)(=O)=O)c3)cc12)c1ccccc1` [Compound 48R, N-(2-chloro-5-(3-cyano-4-((1R-phenylethyl)amino)quinolin-6-yl)pyridin-3-yl)methanesulfonamide]: in data set [5], the “½ life minutes (MLM)” value is on record as “++++ (value is greater than 60 minutes)”. In data set [2], this compound yielded an IC50 of 2 to 20 nM. Moreover, the inhibition at 0.1 µM in data set [2], in data set [3] and in data set [4] was greater than 90% each time. Moreover, the “½ life minutes (HLM)” value in data set [6] is “+++ (value is greater than 30 minutes and less than or equal to 60 minutes)”.

Take `C[C@H](Nc1c(C#N)cnc2ccc(-c3cnc(Cl)c(NS(C)(=O)=O)c3)cc12)c1ccccc1` [Compound 48S, N-(2-chloro-5-(3-cyano-4-((1S-phenylethyl)amino)quinolin-6-yl)pyridin-3-yl)methanesulfonamide]: the “½ life minutes (MLM)” value in data set [5] is recorded as “++++ (value is greater than 60 minutes)”. For the same compound, in data set [2], the IC50 was greater than 200 nM and the inhibition at 0.1 µM is less than 10%. Moreover, in data set [3], the “PI3Ka IC50 (nM)” value is reported as “++++ (value is 2 nM or less)” and the inhibition at 0.1 µM was greater than 90%. In data set [4], the half-inhibitory concentration (IC50) is less than 2 nM and the inhibition at 0.1 µM was greater than 90%. In addition, the “½ life minutes (HLM)” value in data set [6] was “++++ (value is greater than 60 minutes)”.

Regarding `C[C@@H](Nc1c(C#N)cnc2ccc(-c3cnc(Cl)c(NS(C)(=O)=O)c3)cc12)c1ccc(F)cc1` [Compound 97R, N-[2-chloro-5-[3-cyano-4-[[(1R)-1-(4-fluorophenyl)ethyl]amino]-6-quinolyl]-3-pyridyl]methanesulfonamide], the “½ life minutes (MLM)” value in data set [5] is given as “++++ (value is greater than 60 minutes)”. Moreover, the inhibition at 0.1 µM was 10 to 80% in data set [2] and greater than 90% in data set [4]. Also, the “½ life minutes (HLM)” value in data set [6] was “++++ (value is greater than 60 minutes)”.

Consider `C[C@H](Nc1c(C#N)cnc2ccc(-c3cnc(Cl)c(NS(C)(=O)=O)c3)cc12)c1ccc(F)cc1` [Compound 97S, N-(2-chloro-5-(3-cyano-4-((1S-(4-fluorophenyl)ethyl)amino)quinolin-6-yl)pyridin-3-yl)methanesulfonamide], for which the “½ life minutes (MLM)” value in data set [5] was “++++ (value is greater than 60 minutes)”. Moreover, the IC50 in data set [2] is greater than 200 nM; in data set [3], less than 2 nM; in data set [4] it was less than 2 nM. The inhibition at 0.1 µM in data set [2] is less than 10%; in data set [3], greater than 90%; in data set [4] it was greater than 90%. Besides, the “½ life minutes (HLM)” value in data set [6] is reported as “++++ (value is greater than 60 minutes)”.

Turning to `CS(=O)(=O)Nc1cc(-c2ccc3ncc(C#N)c(NC4(c5ccccc5)CC4)c3c2)cnc1Cl` [Compound 106, N-[2-chloro-5-[3-cyano-4-[(1-phenylcyclopropyl)amino]-6-quinolyl]-3-pyridyl]methanesulfonamide], the “½ life minutes (MLM)” value in data set [5] was “+++ (value is greater than 30 minutes and less than or equal to 60 minutes)”. Besides, the inhibition at 0.1 µM in data set [2] was 10 to 80%; in data set [4], greater than 90%. The “½ life minutes (HLM)” value in data set [6] is given as “++++ (value is greater than 60 minutes)”.

For `C[C@H](Nc1ncnc2ccc(-c3cnc(Cl)c(NS(C)(=O)=O)c3)cc12)c1ccc(F)cc1` [Compound 111S, N-[2-chloro-5-[4-[[(1S)-1-(4-fluorophenyl)ethyl]amino]quinazolin-6-yl]-3-pyridyl]methanesulfonamide], in data set [5], the “½ life minutes (MLM)” value is reported as “++++ (value is greater than 60 minutes)”. In addition, in data set [2], the IC50 is greater than 200 nM and the inhibition at 0.1 µM was less than 10%. For the same compound, in data set [3], the “PI3Ka IC50 (nM)” value was “++++ (value is 2 nM or less)” and the inhibition at 0.1 µM is greater than 90%. Further, in data set [4], the IC50 was less than 2 nM and the inhibition at 0.1 µM was greater than 90%. Also, in data set [6], the “½ life minutes (HLM)” value was “++++ (value is greater than 60 minutes)”.

For the compound `CC(Nc1c(C#N)cnc2ccc(-c3cncc(-c4n[nH]c(=O)o4)c3)cc12)c1ccccc1` (centres unmarked) [Compound 129, 6-[5-(2-oxo-3H-1,3,4-oxadiazol-5-yl)-3-pyridyl]-4-(1-phenylethylamino) quinoline-3-carbonitrile], the solubility at 2 h in data set [1] was no more than 20 µM. Also, the half-inhibitory concentration (IC50) in data set [2] lay within 2 to 20 nM; in data set [3], 20 to 200 nM; in data set [4], 2 to 20 nM. Further, the inhibition at 0.1 µM is 80 to 90% in data set [2], 10 to 80% in data set [3] and 80 to 90% in data set [4].
